Measurements: article PMC5066289, “Pharmacokinetics of anidulafungin during venovenous extracorporeal membrane oxygenation” (Critical Care, 2016)
“Also recorded” adds a separate entry of the source. Numbered stars: 1 amine (or outer) side, 2 acyl side, 3 side chain; on linkers, the order of the positions; unused ones are H or OH. Bridge positions count the residues as written; N and C are the ends. Square brackets hold non-standard residues; d marks the D form. Peptide text beside a SMILES is read from it. * marks the point of attachment. pTerphenylCO(4''-OnC5H11) = CCCCCOc1ccc(-c2ccc(-c3ccc(C(=O)*)cc3)cc2)cc1; Orn(4R-OH,5R-OH) = O=C([C@H](C[C@@H](O)[C@@H](O)N[*:3])N[*:1])[*:2]; hTyr(3S-OH,4S-OH) = N[C@H](C(=O)O)[C@H](O)[C@@H](O)c1ccc(O)cc1; Pro(3S-OH,4S-Me) = C[C@H]1CN[C@H](C(=O)O)[C@H]1O; Hyp = O=C(O)[C@@H]1C[C@@H](O)CN1

Columns and labels:
[1] = Non-compartmental pharmacokinetics of anidulafungin in a critically ill patient on venovenous ECMO (plasma and urine, HPLC); format: in vivo, human
Source text: Echinocandins are currently considered the first-line treatment for invasive candidiasis (IC) in the intensive care unit (ICU). However, extracorporeal membrane oxygenation (ECMO), a rescue therapy used in patients with severe acute respiratory distress syndrome (ARDS), could alter the pharmacokinetics of certain drugs. We prescribed anidulafungin for suspected IC in a patient with severe ARDS on ECMO and measured the plasma concentrations of the drug using high-performance liquid chromatography (HPLC).
(§1) A patient was admitted to the ICU with septic shock secondary to peritonitis. The anti-infective treatment was based on surgical source control and broad spectrum antimicrobial therapy, including anidulafungin at usual doses. The patient developed severe ARDS. ECMO with Novalung iLA Activve™ was initiated, maintaining ultraprotective ventilation. Femoral (23 F) and jugular (19 F) cannulas (Novalung™, Germany) were inserted with 4.5 L/min blood flow and 4 L/min gas flow. Urine samples and pre-filter and post-filter blood samples were collected before starting the eight-dose anidulafungin infusion and 0.5, 1, 1.5, 2, 4, 6, 8, and 24 h after the infusion ended.
A non-compartmental pharmacokinetic analysis was performed using Abbottbase Pharmacokinetic Systems™ (Abbott Laboratories, Illinois, USA). The maximum and trough plasma concentrations (Cmax and Cmin, respectively) were estimated directly from concentration-time data. The area under the plasma concentration-time curve over the 24-h dosing interval (AUC0–24) was estimated using the linear trapezoidal rule for both pre-filter and post-filter data. Clearance (CL) was estimated as dose/AUC0–24. The apparent volume of distribution at steady state (Vss) was estimated as the product of CL and mean residence time (MRT).

[2] = Tolerability of anidulafungin in the patient on ECMO; format: in vivo, human; settings: single critically ill patient on venovenous ECMO; usual doses
Source text: as §1

Structure (SMILES): CCCCCOc1ccc(-c2ccc(-c3ccc(C(=O)N[C@H]4C[C@@H](O)[C@@H](O)NC(=O)[C@@H]5[C@@H](O)[C@@H](C)CN5C(=O)[C@H]([C@@H](C)O)NC(=O)[C@H]([C@H](O)[C@@H](O)c5ccc(O)cc5)NC(=O)[C@@H]5C[C@@H](O)CN5C(=O)[C@H]([C@@H](C)O)NC4=O)cc3)cc2)cc1 [anidulafungin] ({pTerphenylCO(4''-OnC5H11)}-[Orn(4R-OH,5R-OH)]T[Hyp][hTyr(3S-OH,4S-OH)]T[Pro(3S-OH,4S-Me)]; lactam 1-C)
- Clearance (CL) ([1]; single patient on venovenous ECMO, non-compartmental, dose/AUC0-24): 0.933 L/h
- Apparent volume of distribution at steady state (Vss) ([1]; single patient on venovenous ECMO, non-compartmental, product of CL and MRT): 18.9 L
- Urine anidulafungin concentrations ([1]; single patient on venovenous ECMO, urine samples over 24 h, HPLC, limit of detection 0.05 mg/L): negligible; also recorded: very low and close to the limit of detection
- Trough plasma concentration (Cmin) ([1]; single patient on venovenous ECMO, usual doses, eighth dose, plasma, HPLC, estimated directly from concentration-time data): 2190 ng/mL
- Maximum plasma concentration (Cmax) ([1]; single patient with severe ARDS on venovenous ECMO, anidulafungin infusion at usual doses, sampled around the eighth dose, plasma, HPLC, estimated directly from concentration-time data): 13500 ng/mL
- Tolerability / adverse effects [2]: well tolerated without relevant adverse effects
